From patent publication US20190350240A1, “Electrolyte-Enhanced Sweetener and Consumable Products Obtained” (priority 2018, published 2019)
Entries after “also recorded” stand apart in the source; their conditions may differ.

Legend:
[1] = Salt Screen #2: thick and heavy flavor before unpleasant off-flavor (taste, TAS); type: in vivo
Description: The second salt screen that was employed tested whether each electrolyte salt could elicit a thick and heavy flavor before it elicited an unpleasant off-flavor, such as saltiness, bitterness, or chalkiness.

[2] = Carbohydrate screen: flavor at strength of 10% sucrose in water, and mixed with the sweetener composition; type: in vivo; details: dissolved into one liter of water to a strength of 10% sucrose
Protocol: Natural sugars and sugar alcohols were screened from commercial sources as candidates for the carbohydrate composition. Refined and unrefined cane sugar, brown sugar, cane juice sugar, maple sugar, coconut sugar, glucose, fructose, and erythritol were dissolved into one liter of water to a strength of 10% sucrose and evaluated for flavor.
Both refined and unrefined cane sugar solutions were mixed with solutions containing the sweetener composition mixed to a strength of 10% sucrose.

[3] = Salt Screen #4: compatibility (CMP) in sweetened cold-brewed coffee and tea; type: in vivo; details: sweetener compositions in cold-brewed coffee and tea, pH-sensitive flavors
Protocol: The fourth salt screen that was employed tested whether each electrolyte salt could enhance the sweetener compositions used to sweeten cold-brewed coffee and tea without disturbing the flavors of these pH-sensitive beverages. The disturbance of pH-sensitive flavors is an important screen because many electrolyte salts influence the pH of the beverages to which they are added. This screen was only applied to the five electrolyte salts that passed the three earlier salt screens.

[4] = in sweetener compositions exposed to ambient air (hygroscopicity)
Description: The third salt screen that was employed tested whether each electrolyte salt could enhance the flavor of sweetener compositions and remain shelf stable when exposed to ambient air. This screen is related to the water solubility of the salt. When salts have too much water solubility, they can become hygroscopic which means they absorb water from ambient air. Hygroscopic salts become wet and clumpy when exposed to ambient air, and they cause sweetener compositions containing them to become difficult to package and dispense because of this instability to air exposure.
This third salt screen is complementary to the first salt screen because it identifies salts with too much water solubility, while the first salt screen identifies salts with too little water solubility.

[5] = Sugar-like flavor judged by taste judges in water versus 10% or 20% sucrose (taste, intensity, thickness, total); type: in vivo; details: for improvement in sugar-like flavor: at optimal dose or ratio, versus starting composition without the added ingredient (zero mg/L; pure S1); for optimal level for sugar-like flavor: potassium in 1300 mg/L HPS, sodium in 1300 mg/L HPS + 200 mg/L potassium
Description: The compositions and methods that embody this invention describe how to form electrolyte-enhanced sweetener compositions that better reproduce the flavor of natural sugar with negligible calories and with favorable physical properties. According to these methods, sugar-like flavor was defined by the numerical consensus of four criteria which were sugar-like taste, intensity, thickness, and compatibility and will be described below.
The four criteria were quantified numerically as four percentile scores. Scores of 100% represented the complete and satisfying reproduction of each criterion of sugar-like flavor. For reference, naturally-refined cane sugar received percentile scores of 100% across all criteria because of how the criteria were defined.
Taste (TAS) The criterion of sugar-like taste encompasses how well a sweetener reproduces the taste of sugar at a high level of sweetness corresponding to a 10% sucrose solution. Ten percent sucrose is equivalent to a 12-ounce soft drink (355 milliliters) sweetened with 36 grams of sucrose. For reference, the sweet taste of sugar develops and recedes across the entire tongue with each tasting in a characteristic way. The time profile of sugar's sweetness is something we generally take for granted until we taste a sweetener with a different time profile that makes it taste unnatural and unsatisfying.
According to a preferred embodiment of this invention, the tastes of sweetener compositions (TAS) were compared to 10% sucrose and evaluated based on the following taste and olfactory flavor properties: • 1. Sweetness across the entire tongue and not in throat; • 2. Rapid onset of sweetness without delay; • 3. Rapid decay of sweetness without lingering after-taste; • 4. Sweetness without bitterness; • 5. Subtle caramel flavor without off-flavors.
Intensity (INT) The criterion of sugar-like intensity represents how well a sweetener reproduces the same five taste properties of sugar (represented by TAS) but at a very high level of sweetness typical in desserts. Drinking water sweetened with 20% sucrose is used as a taste reference for evaluating INT.
Thickness (THK) The criterion of sugar-like thickness represents how well a sweetener reproduces the thick texture of sugar-sweetening that becomes syrupy at higher dose levels. Drinking water samples sweetened with 10% sucrose and with 20% sucrose are used as taste references for evaluating THK.
Total (TOT) The consensus of the percentile scores for the four criteria was determined by numerical averaging to form a total score of sugar-like flavor.
The first three criteria for sugar-like flavor—taste TAS, intensity INT, and thickness THK—were evaluated by taste judges who compared water sweetened to a level of either 10% or 20% sucrose to water sweetened with various sweetener compositions. A level of 10% sucrose represents the sweetness of typical soft drinks and 20% sucrose represents the sweetness of typical desserts.
Taste judges initially evaluated the sugar-like taste TAS and thickness THK of sweetener compositions at the sweetness level of typical soft drinks. They rinsed their mouths with plain water and then evaluated a 100 mL sample of 10% sucrose solution. They took a 15 mL aliquot of the sample into the mouth and swished it around for about 15 seconds. For each mouthful, they evaluated the time course of sweetness onset and decay, natural sugar flavors, off-flavors, and thickness, and they expelled the aliquot into a waste receptacle. Judges continued taking a series of mouthfuls up to a total volume of 100 mL to evaluate the changes in flavor perception from one mouthful to the next related to the natural loss of perceived sweetness, flavor, and thickness of sugar solutions. This protocol was then repeated for each 100 mL sample of spring water sweetened with various sweetener compositions. […]

[6] = cool drinking water, without lengthy stirring or heating
Description: The first salt screen that was employed tested whether each electrolyte salt had sufficient water solubility. The screen tested whether each salt could dissolve sufficiently into cool drinking water and […] without the need for lengthy stirring or heating.

[7] = thick and heavy flavor before saltiness, bitterness or chalkiness

Structure (SMILES): [Cl-].[Cl-].[Mg+2] [Magnesium Chloride, magnesium chloride]
- Does the Electrolyte Salt Have Suitable Taste (TAS)? ([1]; in vivo): Yes

Structure (SMILES): O=C(CO)[C@@H](O)[C@H](O)[C@H](O)CO [Fructose, fructose]
- flavor evaluation of carbohydrate candidates [2]: lose its sweetness at higher temperatures

Structure (SMILES): OC[C@@H](O)[C@@H](O)CO [Erythritol, erythritol]
- flavor evaluation of carbohydrate candidates [2]: drying sensation on the tongue or cooling sensation on the throat

Structure (SMILES): [Ca+2].[Cl-].[Cl-] [Calcium Chloride, calcium chloride]
- Does the Electrolyte Salt Have Suitable Taste (TAS)? ([1]; in vivo): Yes

Structure (SMILES): O=C([O-])O.[Na+] [Sodium Bicarbonate, sodium bicarbonate]
- Does the Electrolyte Salt Have Suitable Taste (TAS)? [1, 7]: Yes
- Does the Electrolyte Salt have Suitable Compatibility (CMP)? [3]: NO, Develops sour/chalky flavor
- Does the Electrolyte Salt have Suitable Compatibility (CMP)? ([3]; listed as sodium carbonate): sour and chalky

Structure (SMILES): O=P([O-])(O)O.[Na+] [Sodium Phosphate Monobasic, sodium phosphate monobasic]
- Does the Electrolyte Salt have Suitable Shelf Stability? [4]: Yes
- Does the Electrolyte Salt Have Suitable Taste (TAS)? [1, 7]: Yes
- Does the Electrolyte Salt have Suitable Compatibility (CMP)? [3]: NO, Develops sour/chalky flavor
- Does the Electrolyte Salt have Suitable Compatibility (CMP)? ([3]; listed as sodium phosphate monobasic): sour and chalky

Structure (SMILES): CC(O)C(=O)[O-].CC(O)C(=O)[O-].[Ca+2] (stereo not shown) [Calcium Lactate, calcium lactate]
- Does the Electrolyte Salt have Suitable Shelf Stability? [4]: Yes
- Does the Electrolyte Salt Have Suitable Taste (TAS)? [1, 7]: Yes
- Does the Electrolyte Salt have Suitable Compatibility (CMP)? [3]: NO, Develops sour/chalky flavor
- Does the Electrolyte Salt have Suitable Compatibility (CMP)? ([3]; listed as calcium lactate): sour and chalky

Structure (SMILES): O=C([O-])[O-].[Ca+2] [Calcium Carbonate, calcium carbonate]
- Does the Electrolyte Salt Have Suitable Taste (TAS)? ([1]; in vivo): NO, Develops chalky and dry flavor; also recorded: tasted chalky

Structure (SMILES): O=S(=O)([O-])[O-].[Mg+2] [Magnesium Sulfate, magnesium sulfate]
- Does the Electrolyte Salt Have Suitable Taste (TAS)? ([1]; in vivo): NO, Develops sour and dry flavor; also recorded: tasted sour

Structure (SMILES): [Cl-].[K+] [Potassium Chloride, potassium chloride]
- improvement in sugar-like flavor [5]: about 10%
- optimal level for sugar-like flavor [5]: 200 mg/L
- Does the Electrolyte Salt Have Suitable Solubility? [6]: Yes
- Does the Electrolyte Salt have Suitable Shelf Stability? [4]: Yes
- Does the Electrolyte Salt Have Suitable Taste (TAS)? [1, 7]: Yes
- Does the Electrolyte Salt have Suitable Compatibility (CMP)? [3]: Yes
- Does the Electrolyte Salt have Suitable Compatibility (CMP)? ([3]; listed as Potassium chloride): passed

Structure (SMILES): [Cl-].[Na+] [Sodium Chloride, sodium chloride]
- taste of sweetened, potassium-enriched water with sodium chloride ([5]; HPS 1300 mg/L, potassium 200 mg/L, dietary sodium level of 150 grams per liter (so in the source)): thick and only mildly salty
- taste of sweetened, potassium-enhanced water with sodium chloride ([5]; HPS 1300 mg/L, potassium 200 mg/L, sodium level of 600 mg/L): unacceptably salty
- improvement in sugar-like flavor [5]: about 5%
- optimal level for sugar-like flavor [5]: 40 mg/L
- Does the Electrolyte Salt Have Suitable Taste (TAS)? [1, 7]: Yes
- Does the Electrolyte Salt have Suitable Compatibility (CMP)? [3]: Yes
- Does the Electrolyte Salt have Suitable Compatibility (CMP)? ([3]; listed as sodium chloride): passed
